Test results published in US12004506B2, “Pharmaceutical composition comprising a cyclic peptide of formula X1-[sequence]-X2 and use for extracorporeal lung treatment” (priority 2013, dated 2024).
Like-named read-outs stand apart in the source and are kept apart here. Bridges are numbered along the chain shown (N, C = ends). Where no end group is shown, it is not given here.

Key:
[1] = test system: sodium ion current in A549 cells (deglycosylated cell surface); assay: Patch clamp assay, whole cell mode, on A549 cells deglycosylated with PNGase F; type: cell-based, human; details: 240 nM peptide, Eh -100 mV; for Whole cell current, pre-treatment with PNGase F: A549
Procedure: In whole cell mode experiments as described above, A549 cells were incubated with “PNGase enzyme F” (Peptide-N^4-(N-acetyl-β-D-glucosaminyl)asparagine amidase F) 100 units for 1-5 minutes immediately prior to the patch clamp measurements and glass cover slips with the cultured cells were rinsed with external solution before being transferred to the chamber of the 1 mL bath.
The results of the deglycosylation experiments using the patch clamp assay in whole cell mode are presented in Table IV, wherein the effect of deglycosylation of A549 cells on activation of sodium ion current by peptides of SEQ ID NO:1 to SEQ ID NO:7 is indicated. Whole cell currents were recorded at Eh=−100 mV.

[2] = test system: sodium ion current in A549 cell line; details: for activity on sodium ion current (in words): A549, patch clamp
Procedure: Experiments were carried out on the human epithelial cell line A549 (ATTAC Nr. CCL-185) in passages 80-90. Cells were grown in Dulbecco's modified Eagle's medium/nutrient mixture F12 Ham, supplemented with 10% fetal bovine serum and containing 1% penicillin-streptomycin. All culture media were purchased from Sigma-Aldrich GmbH (St. Louis, MO).
Currents were recorded with the patch clamp method in the whole-cell mode. Glass cover slips with the cultured cells were transferred to a chamber of 1 ml capacity, mounted on the stage of an inverted microscope (Zeiss, Axiovert 100). The chamber contained 1 ml of the bath solution of the following composition (in mM): 145 NaCl, 2.7 KCl, 1.8 CaCl2), 2 MgCl2, 5.5 glucose and 10 HEPES, adjusted to pH 7.4 with 1 M NaOH solution. Micropipettes were pulled from thin-walled borosilicate glass capillaries (World Precision Instruments, Inc., FL, USA) with a Flaming Brown micropipette puller (P87, Sutter Instruments, CA, USA) and polished on a microforge (Narishige, Tokyo, Japan) to obtain electrode resistances ranging from 2.0 to 3.5 MΩ. […] Chemicals for pipette and bathing solutions were supplied by Sigma-Aldrich (Vienna, Austria). Electrophysiological measurements were carried out with an Axopatch 200B patch clamp amplifier (Axon Instruments, CA, USA). Capacity transients were cancelled, and series resistance was compensated. Whole cell currents were filtered at 5 kHz and sampled at 10 KHz. Data acquisition and storage were processed directly to a PC equipped with pCLAMP 10.0 software (Axon Instruments, CA, USA).
After GΩ-seal formation, the equilibration period of 5 min was followed by control recordings at holding potentials (Eh) between −100 and +100 mV in 20 mV increments for 1 min at each Eh. […] The wash-in phase lasted about 1 min. […] Concentration-response curves and EC50-values were fitted and estimated for currents recorded at Eh of −100 mV with SigmaPlot 9.0. […] Subsequent addition of 10 mM tetraethylammonium chloride (TEA) indicated whether any observed increases in the current were due to potassium current. […]

[3] = test system: non-ischemic pig donor lung; assay: Ex vivo lung perfusion (EVLP) of non-ischemic pig donor lungs, inhalative application; details: pulmonary application
Procedure: Brain death pigs were turned into dorsal position, and a longitudinal sternotomy was performed. The pericardium and both pleural cavities were opened. […] An inflow catheter was placed in the pulmonary artery through a purse-string on the right ventricular outflow tract.
The lungs (non-ischemic) were then preserved with an ante grade flush of cold isotonic preservation solution (50 ml per kg body weigh of pig, containing potassium ions, sodium ions, magnesium ions, calcium ions, chloride ions, dextran, glucose, buffering ions) through the inflow catheter. Incision of the left auricular appendix provides outflow. The lungs were ventilated during this period with 50% oxygen, and iced slush were placed in both pleural cavities and mediastinum.
The explanation technique was en bloc harvesting with heart and esophagus according to the following steps: • a) Dissection of soft tissue bridges to the thoracic cavity on both sides of the trachea. • b) Transsection of both pulmonal ligaments (very deep, difficult exposure), then of the VCI, the lower thoracic descendent aorta and the esophagus, respectively. • c) Blunt separation from remaining mediastinal adhesions. • d) Complete inflation of the donor lung prior of tracheal closure with a stapler.
After explantation, the lungs were wrapped in gauze, placed in an insulated ice bag filled with low-potassium dextran extracellular solution, and stored at 4° C. for 18 to 24 hours. A temperature probe was submerged in the container, which will be placed in a refrigerator.
For ex-vivo lung conditioning, the EVLP technique ([…]) was used. In the EVLP technique, donor lungs are placed into a circuit composed of a pump, ventilator and filters. EVLP technique, the temperature may increased up to 37 °C. In the EVLP, a ventilator is used to deliver oxygen to the lungs. The pump is used to perfuse the lungs with an extracellular solution containing human albumin and nutrition. During EVLP, the lung function can be evaluated regularly on key indicators. […]

[4] = test system: sodium ion current in A549 cells (deglycosylated cell surface); assay: Patch clamp assay, whole cell mode, on A549 cells deglycosylated with PNGase F; type: cell-based, human; details: 240 nM peptide, Eh -100 mV

Molecule	Whole cell current, pre-treatment with PNGase F [1]	also measured
C[C@@H]1NC(=O)CNC(=O)[C@H](CCC(=O)O)NC(=O)[C@@H]2CCCN2C(=O)[C@H]([C@@H](C)O)NC(=O)[C@H](CCC(=O)O)NC(=O)[C@H](CCCNC(=N)N)NC(=O)[C@H](CCC(N)=O)NC(=O)CNC(=O)CCNC(=O)CC[C@@H](C(=O)O)NC(=O)[C@H](Cc2ccc(O)cc2)NC(=O)[C@H](Cc2c[nH]c3ccccc23)NC(=O)[C@@H]2CCCN2C(=O)[C@H](CCCCN)NC(=O)[C@H](C)NC(=O)[C@H](CCC(=O)O)NC1=O [SEQ ID NO: 6]	19.9 pA (n = 3)	
C[C@@H]1NC(=O)CNC(=O)[C@H](CCC(=O)O)NC(=O)[C@@H]2CCCN2C(=O)[C@H]([C@@H](C)O)NC(=O)[C@H](CCC(=O)O)NC(=O)[C@H](CCCNC(=N)N)NC(=O)[C@H](CCC(N)=O)NC(=O)CNC(=O)CCCNC(=O)C[C@@H](C(=O)O)NC(=O)[C@H](Cc2ccc(O)cc2)NC(=O)[C@H](Cc2c[nH]c3ccccc23)NC(=O)[C@@H]2CCCN2C(=O)[C@H](CCCCN)NC(=O)[C@H](C)NC(=O)[C@H](CCC(=O)O)NC1=O [SEQ ID NO: 5]	22.4 pA (n = 3)	
C[C@@H]1NC(=O)CNC(=O)[C@H](CCC(=O)O)NC(=O)[C@@H]2CCCN2C(=O)[C@H]([C@@H](C)O)NC(=O)[C@H](CCC(=O)O)NC(=O)[C@H](CCCNC(=N)N)NC(=O)[C@H](CCC(N)=O)NC(=O)CNC(=O)[C@@H](N)CCCNC(=O)CNC(=O)[C@H](Cc2ccc(O)cc2)NC(=O)[C@H](Cc2c[nH]c3ccccc23)NC(=O)[C@@H]2CCCN2C(=O)[C@H](CCCCN)NC(=O)[C@H](C)NC(=O)[C@H](CCC(=O)O)NC1=O [SEQ ID NO: 4]	22.5 pA (n = 3)	
C[C@@H]1NC(=O)CNC(=O)[C@H](CCC(=O)O)NC(=O)[C@@H]2CCCN2C(=O)[C@H]([C@@H](C)O)NC(=O)[C@H](CCC(=O)O)NC(=O)[C@H](CCCNC(=N)N)NC(=O)[C@H](CCC(N)=O)NC(=O)CNC(=O)[C@@H]2CCCN2C(=O)[C@H](CO)NC(=O)[C@@H](N)CCCCNC(=O)CC[C@@H](C(=O)O)NC(=O)[C@H](Cc2ccc(O)cc2)NC(=O)[C@H](Cc2c[nH]c3ccccc23)NC(=O)[C@@H]2CCCN2C(=O)[C@H](CCCCN)NC(=O)[C@H](C)NC(=O)[C@H](CCC(=O)O)NC1=O [SEQ ID NO: 2]	21.3 pA (n = 3)	
Cyclo(CGQREAPAGAAAKPWYC) (disulfide 1-17) [SEQ ID NO: 7, reference compound]	no avtivity	activity on sodium ion current (in words) [2]: no activity; activity on sodium ion current (in words) ([2]; listed as SEQ ID NO:7): did not show activity; EC50 (nM) on cellular sodium ion current ([2]; A549, whole cell recording, Eh -100 mV): no activity; activity in deglycosylation experiments (in words) [1]: no activity; effects on lung function [3]: did not provide improving effects; Whole cell current, no pre-treatment with PNGase F [4]: no activity
C[C@@H]1NC(=O)CNC(=O)[C@H](CCC(=O)O)NC(=O)[C@@H]2CCCN2C(=O)[C@H]([C@@H](C)O)NC(=O)[C@H](CCC(=O)O)NC(=O)[C@H](CCCNC(=N)N)NC(=O)[C@H](CCC(N)=O)NC(=O)CNC(=O)[C@@H](N)CCCCNC(=O)CNC(=O)[C@H](Cc2ccc(O)cc2)NC(=O)[C@H](Cc2c[nH]c3ccccc23)NC(=O)[C@@H]2CCCN2C(=O)[C@H](CCCCN)NC(=O)[C@H](C)NC(=O)[C@H](CCC(=O)O)NC1=O [SEQ ID NO: 3]	20.6 pA (n = 3)	
